The values that follow come from patent publication EP2921179A1, “Micellar nanoparticles containing antitumoral glycosides” (Fundación Centro Nacional de Investigaciones …, priority 2014, dated 2015).

Read-outs that look alike come from different tables or passages of the source.

Data set [1] is described as follows: Solubility / stability in water. In kind it is physicochemical. Particulars: pure water, observed by eye. The text has this:
For GC-22 and TFA-GC22, the glycosides alone are not soluble in pure water, while the micelles GC-22-NPs and TFA-GC22-NPs are stable in the aqueous phase. Precipitate of GC-22 and TFA-GC22 can be observed by eye straight away in a pure water solution and no re-dispersion is produced when the aqueous micellar solution is mixed with an organic solvent selected from the group consisting of dichloromethane, chloroform, hexane, heptane, toluene, in a volume proportion of 1:1.

Data set [2] has as its system C6 rat glioma cell line. Nature of the data set: MTT assay, inhibition of C6 tumor cell proliferation. In kind it is cell-based. Particulars: for IC50: free glycoside derivative, 48 h treatment, MTT, read-out: ID50 (µM) C6. As to the method: (§1) Human A549 cell line and C6 rat glioma cell line were maintained in Dulbecco's modified Eagle's medium (DMEM) complete medium (Sigma-Aldrich, St. Louis, MO), supplemented with fetal bovine serum (FBS, 10%; GLinus, Madrid, Spain), glutamine (2 mM), penicillin (50 IU/mL), and streptomycin ([…]), at 37 °C in a 5% CO2 humidified atmosphere. Exponentially growing cells were seeded on 96-well plates (Beckton Dickinson, Le Pont de Claix, France), in DMEM complete medium, at a density of 1.5 x 10^4 cells/well for C6 cell and 5 x 10^3 cells/well for A549 cells respectively. The cells were allowed to attach with 5% of CO2 at 37°C for overnight, and then, to serum starve the cells, the medium was replaced by 100 µL of fresh DMEM without FBS and maintained overnight. Stock solutions in EtOH of the glycoside derivatives of formula (I) of Example 2 (50 mM) or stock solutions in PBS of the micelles of Example 3 were finally dissolved in DMEM complete medium for the treatments. The cells were treated with serial dilutions of glycoside derivatives of formula (I) of Example 2 or micelles of Example 3 for 48 h. For the experiments with micelles of Example 3, some 96-well plates were placed over a MagnetoFACTOR-96 device (Chemicell) to produce a strong magnetic field to each well and increase the proximity of the nanoparticles to the cells. Also, iron oxide nanoparticles coated with azelaic acid were tested (Azelaic-NP, obtained as described in Chemistry - A European Journal, 2008, 14 (30), 9126-9130) Cell proliferation was evaluated with an MTT assay (Sigma-Aldrich), based on the conversion of the water-soluble MTT into an insoluble formazan. Briefly, after 48 h of compound treatment, the medium was replaced by 100 µL of fresh DMEM without phenol red containing MTT (5 mg/mL) solution, and cells were incubated for additional 3 h at 37 °C with 5% CO2. After this time, the medium was removed, the precipitated formazan was dissolved in 100 µL of DMSO, and the solution optical density was measured at 595 nm in Spectramax Plus equipment (Molecular Devices Corporation). Absorption values were referred to positive proliferation controls (cells cultured in DMEM complete medium) and negative proliferation controls cells cultured in DMEM without FBS). Inhibition was expressed as an ID50 value, the compound concentration that reduced maximal proliferation by 50%, and the results are shown in Table 3. Table 3. Biological activity of glycoside derivatives of formula (I) and micelles comprising said glycoside derivatives.
(In general: Tetrazolium dyes change colour on reduction, which living cells bring about.)

Data set [3] deals with A549 cell line. Nature of the data set: MTT assay, inhibition of A549 tumor cell proliferation. Format: cell-based, Human. The following applies: 48 h treatment, read-out: ID50 (µM) A549. As to the method: as §1, with “Absorption values were referred to positive proliferation controls (cells cultured in DMEM complete medium) and negative proliferation controls cells cultured in DMEM without FBS). Inhibition was expressed as an ID50 value, the compound concentration that reduced maximal proliferation by 50%, and the results are shown in Table 3. Table 3. Biological activity of glycoside derivatives of formula (I) and micelles comprising said glycoside derivatives.” left out

Where [4] appears, read: Homo sapiens, A549, free glycoside derivative.

As to `CCCCCCCC/C=C\CCCCCCCCO[C@H]1O[C@H](COS(=O)(=O)[O-])[C@@H](O)[C@H](O)[C@H]1NC(C)=O.[K+]` [IG20, Oleyl 2-acetamido-2-deoxy-6-O-(oxosulfonyl)-α-D-glucopyranoside potassium salt], the solubility in water entry in data set [1] is “soluble in water”. In addition, the IC50 in data set [2] is greater than 100 µM; in data set [3] (free glycoside derivative), 97 µM. Further, the “inhibition of proliferation of C6 tumor cells” value in data set [2] (result in words) is given as “did not show inhibition”.

Turning to `CCCCCCCC/C=C\CCCCCCCCO[C@H]1O[C@H](CO)[C@@H](O)[C@H](O)[C@H]1NC(C)=O` [GC22, Oleyl 2-acetamido-2-deoxy-α-D-glucopyranoside], in data set [1], the solubility in water result is reported as “not soluble”. The IC50 came to 15.5 ± 0.3 µM in data set [2] (Rattus norvegicus, Glioma cell) and 10 µM in data set [3] (setting [4]).

`CCCCCCCC/C=C\CCCCCCCCO[C@H]1O[C@H](CO)[C@@H](O)[C@H](O)[C@H]1NC(=O)C(F)(F)F` [TFAGC22, Oleyl2-deoxy-2-trifluoroacetamido-α-D-glucopyranoside]: the solubility in water result in data set [1] is reported as “not soluble”. Further, the IC50 in data set [2] (Rattus norvegicus, Glioma cell) was 14.2 ± 0.3 µM; in data set [3] (setting [4]) it was 8.6 µM.
